Measured values reported in patent US9162988B2, “Therapeutic or prophylactic agent for allergic dermatitis” (Toray Industries, Inc., priority 2007, dated 2015).
Where a name gives a salt, the structure may show the parent alone.

tested on: BLAB/c mouse; experiment: Inhibitory effect on skin swelling response in mouse allergic dermatitis model; format: in vivo; conditions: IgE anti-DNP sensitized mouse, DNFB-induced; 50 mg/kg orally before the induction; 24 hours after administration
Procedure: This method was carried out in accordance with the literature “Inflamm. Res., 47, 506-511 (1998)”.
To each BLAB/c mouse (female, 7 weeks old, JAPAN CHARLES RIVER), mouse IgE anti-DNP antibody (2.5 mg/kg, SEIKAGAKU CORPORATION) was intravenously administered to passively sensitize the mouse. Twenty four hours later, 20 μL of 0.38% 2,4-dinitrofluorobenzene (DNFB, SIGMA) dissolved in acetone:olive oil (4:1) was applied to the auricle of the sensitized mouse to induce inflammation. The thickness of the auricle was measured with time till 24 hours after the induction with Digimatic Indicator (Mitutoyo), and the ear swelling ratio was calculated according to the following equation: Ear Swelling Ratio (%)=(A−B)/B×100
A: Thickness of the right auricle after the induction
B: Thickness of the right auricle before the induction
Each test compound was dissolved in phosphate buffered saline and orally administered at a dose of 50 mg/kg before the induction.

Structure (SMILES) | Inhibition ratio of the ear swelling (swelling response of the auricle) [%]
COC1(c2ccc(/C=C/C[C@H](NC(=O)c3c(Cl)cccc3Cl)C(=O)[O-])cc2)CCOCC1.[Na+] [Example 78, (S,E)-2-(2,6-Dichlorobenzamido)-5-[4-(4-methoxytetrahydropyran-4-yl)-phenyl]pent-4-enoic acid sodium salt] | 62.5
CC(C)N(c1ccc(/C=C/C[C@H](NC(=O)c2c(Cl)cccc2Cl)C(=O)O)cc1)c1ncccn1 [Example 83, (S,E)-2-(2,6-Dichlorobenzamido)-5-[4-(isopropyl-pyrimidin-2-ylamino)phenyl]pent-4-enoic acid] | 57.4
CC(C)N(c1ccc(/C=C/C[C@H](NC(=O)c2c(Cl)cccc2Cl)C(=O)[O-])cc1)c1ncccn1.[Na+] [Example 84, (S,E)-2-(2,6-Dichlorobenzamido)-5-[4-(isopropyl-pyrimidin-2-ylamino)phenyl]pent-4-enoic acid sodium salt] | 66.9
CN(c1ccc(/C=C/C[C@H](NC(=O)c2c(Cl)cccc2Cl)C(=O)[O-])cc1)c1ncccn1.[Na+] [Example 81, (S,E)-2-(2,6-Dichlorobenzamido)-5-[4-(methyl-pyrimidin-2-ylamino)phenyl]pent-4-enoic acid sodium salt] | 97.9
CN(c1ccc(/C=C/CC(NC(=O)c2c(Cl)cccc2Cl)C(=O)O)cc1)c1ncccn1 (centres unmarked) [Example 22, (E)-2-(2,6-Dichlorobenzamido)-5-[4-(methyl-pyrimidin-2-ylamino)phenyl]pent-4-enoic acid] | 84.7
CC(C)N(c1ccc(/C=C/CC(NC(=O)c2c(Cl)cccc2Cl)C(=O)O)cc1)c1ncccn1 (centres unmarked) [Example 28, (E)-2-(2,6-Dichlorobenzamido)-5-[4-(isopropyl-pyrimidin-2-ylamino)phenyl]pent-4-enoic acid] | 98.5
CCOC1(c2ccc(/C=C/CC(NC(=O)c3c(Cl)cccc3Cl)C(=O)O)cc2)CCOCC1 (centres unmarked) [Example 6, (E)-2-(2,6-Dichlorobenzamido)-5-[4-(4-ethoxytetrahydropyran-4-yl)-phenyl]pent-4-enoic acid] | 91.2
CN(c1ccc(/C=C/C[C@H](NC(=O)c2c(Cl)cccc2Cl)C(=O)O)cc1)c1ncccn1 [Example 80, (S,E)-2-(2,6-Dichlorobenzamido)-5-[4-(methyl-pyrimidin-2-ylamino)phenyl]pent-4-enoic acid] | 86.3
COC1(c2ccc(/C=C/CC(NC(=O)c3c(Cl)cccc3Cl)C(=O)O)cc2)CCOCC1 (centres unmarked) [Example 4, (E)-2-(2,6-Dichlorobenzamido)-5-[4-(4-methoxytetrahydropyran-4-yl)-phenyl]pent-4-enoic acid] | 79.8
COCCOc1ccc(/C=C/CC(NC(=O)c2ccc(CNS(=O)(=O)c3cc(Cl)cc(Cl)c3)cc2)C(=O)[O-])cc1.[Na+] (centres unmarked) [(XXII), (E)-2-(4-((3,5-dichlorophenylsulfonamide)methyl)benzamide)-5-(4-(2-methoxyethoxy)phenyl)pent-4-enoic acid sodium salt, reference compound] | 2.3
COC1(c2ccc(/C=C/C[C@H](NC(=O)c3c(Cl)cccc3Cl)C(=O)O)cc2)CCOCC1 [Example 77, (S,E)-2-(2,6-Dichlorobenzamido)-5-[4-(4-methoxytetrahydropyran-4-yl)-phenyl]pent-4-enoic acid] | 85.8

tested on: Jurkat cells; experiment: Inhibitory effect on leukocyte functions: adhesion of Jurkat cells to ligand-expressing cells or ligand-immobilized plate; format: cell-based; conditions: Homo sapiens, 0.5 h, read-out: IC50 (concentration at which the number of adherent cells is reduced by 50%)
Procedure: Jurkat cells which are a cell line originated from human acute T cell lymphoma were allowed to react with BCECF-AM at 37° C. for 20 minutes to fluorescently label the cells. The fluorescently labelled Jurkat cells were allowed to react with ligand-expressing cells or with a ligand-immobilized plate at 37° C. for 30 minutes. After removing non-adherent cells by washing, 1% NP40 was added to lyse the adherent cells, and fluorescence intensity was measured with Cytofluor 2300 (Millipore). From the obtained fluorescence intensity, the number of adherent cells was calculated. Each test compound was reacted with the Jurkat cells before the beginning of the adhesion reaction. In Table 18, the IC50 of each compound (i.e. the concentration at which the number of adherent cells is reduced by 50%) is shown.

Structure (SMILES) | IC50 [µM]
O=C(NC(C/C=C/c1ccc(N(CC2CC2)c2ncccn2)cc1)C(=O)O)c1c(Cl)cccc1Cl (centres unmarked) [Example 53, (E)-5-[4-(Cyclopropylmethyl-pyrimidin-2-ylamino)phenyl]-2-(2,6-dichlorobenzamido)pent-4-enoic acid sodium salt] | 0.12
CC(C)CN(c1ccc(/C=C/CC(NC(=O)c2c(Cl)cccc2Cl)C(=O)O)cc1)c1ncccn1 (centres unmarked) [Example 55, (E)-2-(2,6-Dichlorobenzamido)-5-[4-(isobutyl-pyrimidin-2-ylamino)phenyl]pent-4-enoic acid sodium salt] | 0.42
CCCCN(c1ccc(/C=C/CC(NC(=O)c2c(Cl)cccc2Cl)C(=O)O)cc1)c1ncccn1 (centres unmarked) [Example 37, (E)-5-(4-Butyl-pyrimidin-2-yl-amino)-phenyl]-2-(2,6-dichlorobenzamido)-pent-4-enoic acid sodium salt] | 0.16
